# Measurements published in PubChem BioAssay AID1959 (Broad Institute, 2009).
# Calls of active or inactive are those of the source.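 The calls were made as follows: active = growth-inhibition EC50 no more than tenfold above the top tested dose; inconclusive = flat fit between 30% and 70% inhibition, or unreliable fit; inactive = EC50 more than tenfold above the top tested dose.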
# Tested on: E. coli NEB5alpha growth, BacTiter-Glo luminescence, 4 h
# Experiment: antibacterial activity against E. coli NEB5alpha – luminescence, counter-screen for MEX-5/POS-1 RNA-binding inhibitor project, dose response (AID 1959);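 also: pUC19-transformed ampicillin-resistant cells grown in LB with ampicillin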
row,Compound,EC50
1,O=C(O)c1ccccc1NS(=O)(=O)c1ccc(NNC(=S)Nc2ccc(OC(F)F)cc2)c([N+](=O)[O-])c1,> 11 µM (inactive)
2,CCOC1(OCC)N=C(N)C2(C#N)C(c3ccc(NC(C)=O)cc3)C12C#N (stereo not drawn),> 11 µM (inactive)
3,O=C(O)C(=O)/C(=C\c1ccc(Cl)cc1)c1ccc2ccccc2n1,> 11 µM (inactive)
4,COc1ccc(/C=C/C(=O)c2c(O)n(CCC3=CCCCC3)c(=O)[nH]c2=O)cc1OC,> 11 µM (inactive)
5,O=C(O)COc1ccc(/C=C/c2nc(-c3ccccc3O)n[nH]2)cc1,> 11 µM (inactive)
6,c1ccc2oc(CCc3nc4ccccc4o3)nc2c1,> 11 µM (inactive)
7,N=c1c(S(=O)(=O)c2ccc(Cl)cc2)cc2c(=O)n3ccccc3nc2n1C1CCCCC1,> 11 µM (inactive)
8,CN1CCCc2cc3c(C(F)(F)F)cc(=O)oc3nc21,> 11 µM (inactive)
9,Cc1nn(C)c(C)c1CN(C)C(=O)C1c2ccccc2Oc2ccccc21,> 11 µM (inactive)
10,Cc1cc(C)cc(N2C(=O)/C(=C\c3ccc(N4CCN(C)CC4)o3)C(=O)NC2=S)c1,> 11 µM (inactive)
11,COc1ccc(Nc2ncnc3nc[nH]c23)cc1OC,> 11 µM (inactive)
12,COc1ccc(-n2nc(C(=O)c3cccs3)cc(-c3nc4ccccc4[nH]3)c2=N)cc1,> 11 µM (inactive)
13,CCN(CC)C(=O)Cn1cc(/C=C2\C(=O)NC(=O)N(c3ccccc3F)C2=O)c2ccccc21,> 11 µM (inactive)
14,CCCCOC(=O)c1ccc(N=Nc2c(C)c(C#N)c(O)[nH]c2=O)cc1,> 11 µM (inactive)
15,NC(=O)c1c(NC(=O)c2ccccc2)sc2c1CCN(Cc1ccccc1)C2,> 11 µM (inactive)
16,CN(CC(=O)NCc1ccccn1)S(=O)(=O)c1ccc(Br)cc1,> 11 µM (inactive)
17,O=C(CNS(=O)(=O)c1ccc([N+](=O)[O-])cc1)N/N=C/c1ccc(O)cc1O,> 11 µM (inactive)
18,Cc1ccc(/C=C2\C(=O)NC(=S)N(c3cccc(F)c3)C2=O)o1,> 11 µM (inactive)
19,O=C(O)c1ccccc1-c1ccc(C=C2C(=O)N(c3ccccc3)C(=S)N(c3ccccc3)C2=O)o1,> 11 µM (inactive)
20,COc1ccc(C2=CC3=C(Br)C(=O)C(C)(OC(=O)c4cccs4)C(=O)C3=CO2)cc1 (stereo not drawn),> 11 µM (inactive)
21,CN(C)c1cccc2c1c(NS(=O)(=O)c1cn(C)cn1)nn2C,> 11 µM (inactive)
22,CN(C)C1C(=O)C(C(N)=O)=C(O)C2(O)C(=O)C3=C(O)c4c(O)cccc4C(C)(O)C3C(O)C12 (stereo not drawn),8.68 µM
23,COc1ccc(-c2cc3ccc(OCC(N)=O)cc3oc2=O)cc1OC,> 11 µM (inactive)
24,Cc1cc(=O)oc2c(CN3CCC(C)CC3)c(O)c(Cl)cc12,> 11 µM (inactive)

row,Compound,EC50
1,COc1cccc(C2c3c(oc4ccccc4c3=O)C(=O)N2Cc2ccco2)c1 (stereo not drawn),> 11 µM (inactive)
2,Cc1ccc2[nH]c3c(c2c1)CN(C(=O)CN1CCN(C(=O)c2ccco2)CC1)CC3,> 11 µM (inactive)
3,CC1(OC(=O)C2CCCC2)C(=O)C=C2C=C(c3ccsc3)OC=C2C1=O (stereo not drawn),> 11 µM (inactive)
4,N#C/C(=C\N1CCN(Cc2ccc3c(c2)OCO3)CC1)c1nc2ccccc2s1,> 11 µM (inactive)
5,COc1ccc2c(c1)c1nc3ccccc3nc1n2CCn1c(=O)oc2ccccc21,> 11 µM (inactive)
6,CC(C)(C)OC(=O)NC(Cc1ccccc1)C(=O)N1CCC(C(=O)NCC(=O)Nc2ccc(F)cc2)CC1 (stereo not drawn),> 11 µM (inactive)
7,C[C@H]1c2cccc(O)c2C(O)=C2C(=O)[C@]3(O)C(O)=C(C(N)=O)C(=O)[C@@H](N(C)C)[C@@H]3[C@@H](O)[C@@H]21,4.67 µM
8,COC(=O)/C=C1\C(=O)N(c2nc3ccccc3s2)C(=S)N1c1ccc(F)cc1,> 11 µM (inactive)
9,Cc1ccc(S(=O)(=O)N2CCOCC2)cc1NC(=O)CN(C)C1CCS(=O)(=O)C1 (stereo not drawn),> 11 µM (inactive)
10,Cn1cc(/C=C2\C(=O)NC(=O)N(c3ccccc3)C2=O)c2ccccc21,> 11 µM (inactive)
11,COC(=O)c1ccc(-n2c(C)cc(/C=N/Nc3nc(C)cc(=O)[nH]3)c2C)cc1,> 11 µM (inactive)
12,Cc1ccc(-c2nc(C=Nc3ccc(O)cc3)c(O)o2)cc1,> 11 µM (inactive)
13,COc1ccc(C(=O)/C=C/Nc2ccc([N+](=O)[O-])cc2C)cc1OC,> 11 µM (inactive)
14,COc1ccc(N=Cc2c(O)ccc3ccccc23)cc1,> 11 µM (inactive)
15,O=C(c1ccc(Br)s1)N1CCN(c2ccccn2)CC1,> 11 µM (inactive)
16,CC(C)(O)[C@H]1O[C@H]2CC[C@@]3(C)[C@@](O)(CC[C@H]4Cc5c([nH]c6ccccc56)[C@@]43C)C2=CC1=O,> 11 µM (inactive)
17,CC(=O)/C(N=Nc1nc2c([nH]1)c(=O)n(C)c(=O)n2C)=C(\C)O,> 11 µM (inactive)
18,O=C1c2ccccc2C(=O)c2[nH]c(=O)[nH]c21,> 11 µM (inactive)
19,CCn1c(SCC(=O)Nc2cc(C)on2)nnc1-c1ccc(OC)cc1,> 11 µM (inactive)
20,O=C1C(Cl)=C(Nc2ccccc2O)C(=O)N1c1ccccc1,> 11 µM (inactive)
21,COc1cccc(C(=O)NCC2CCN(c3ccc(S(=O)(=O)N4CCOCC4)cc3)CC2)c1,> 11 µM (inactive)
22,Cc1ccc(C(=O)O)cc1-n1c(C)cc(C=O)c1C,> 11 µM (inactive)
23,O=C(O)CCc1ccc(-c2ccccc2)n1-c1cccc(C(=O)O)c1,> 11 µM (inactive)
24,CC(C)c1nnc(N2C(=O)C(O)=C(C(=O)c3cccs3)C2c2ccccc2)s1 (stereo not drawn),> 11 µM (inactive)

row,Compound,EC50
1,O=C1C2=C(SCCS2)C(=O)N1c1ccccc1,> 11 µM (inactive)
2,COc1ccc(N2C(=O)NC(=O)/C(=C\c3cn(C)c4ccccc34)C2=O)cc1,> 11 µM (inactive)
3,CC(C)c1ccc(C2C(C#N)=C(N)N3C(=C2C#N)Sc2ccccc23)cc1 (stereo not drawn),> 11 µM (inactive)
4,CCCCCCn1c(O)c(C=Nc2ccccc2N2CCOCC2)c(=O)[nH]c1=S,> 11 µM (inactive)
5,O=c1oc2ccc3ccccc3c2cc1-c1nc2ccccc2o1,> 11 µM (inactive)
6,CCOC(=O)c1c[nH]c2nc(C)ccc2c1=O,> 11 µM (inactive)
7,CCN1CCN(Cc2c(O)ccc3c2O/C(=C\c2ccccc2)C3=O)CC1,> 11 µM (inactive)
8,CN1C(=O)C(=Cc2cn(CC(=O)N3CCCCC3)c3ccccc23)C(=O)N(C)C1=O,> 11 µM (inactive)
9,COc1ccc(CCn2c(O)c(C=Nc3ccc(NC(C)=O)cc3)c(=O)[nH]c2=O)cc1OC,> 11 µM (inactive)
10,CCOCCCn1c(=NC(=O)c2cccs2)c(C#N)cc2c(=O)n3cccc(C)c3nc21,> 11 µM (inactive)
11,CCOc1ccc(S(=O)(=O)Nc2cc(Sc3ncn[nH]3)c3oc(=O)sc3c2)cc1,> 11 µM (inactive)
12,Cc1cc(/C=C2\C(=O)NC(=O)N(c3ccc(Br)cc3)C2=O)c(C)n1C,> 11 µM (inactive)
13,O=C(N/N=C\c1c(O)ccc2ccccc12)c1cncc(Br)c1,> 11 µM (inactive)
14,Cc1cc(C)nc(NNC2=CC(=O)CC(C)(C)C2)n1,> 11 µM (inactive)
15,CC1(C)CC(=O)C2=C(C1)OC(N)=C(C#N)[C@@]21C(=O)N(CC(N)=O)c2ccccc21,> 11 µM (inactive)
16,CCCCN1C(=O)/C(=C/C=C2\Oc3ccccc3N2CC)SC1=S,> 11 µM (inactive)
17,Cc1cc(C=C2C(=O)NC(=O)NC2=O)c(C)n1-c1cccnc1,> 11 µM (inactive)
18,Cn1ncc2c(NNC(=O)c3ccc(O)cc3)ncnc21,> 11 µM (inactive)
19,COc1ccc(N=Cc2c(O)c3ccccc3n2C(C)=O)cc1,> 11 µM (inactive)
20,CC(=O)C1=C(c2cccc([N+](=O)[O-])c2)N(C(C)=O)n2c(C)nnc2S1,> 11 µM (inactive)
21,CCN1C(=O)C(=Cc2ccc(N3CCOCC3)o2)C(=O)N(CC)C1=S,> 11 µM (inactive)
22,NS(=O)(=O)c1ccc2c(c1)C1C=CCC1C(C1CC=CCC1)N2 (stereo not drawn),> 11 µM (inactive)
23,O=C(O)c1ccccc1-n1c2ccccc2c2ccccc21,> 11 µM (inactive)
24,Cc1nonc1OCCNCCNc1ccc([N+](=O)[O-])c2cccnc12,> 11 µM (inactive)

row,Compound,EC50
1,COC(=O)CCCC1=CC2=CC(=O)C(C)(OC(=O)c3cccs3)C(=O)C2=CO1 (stereo not drawn),> 11 µM (inactive)
2,Fc1ccc2c(c1)C1C=CCC1C(c1cc3c(cc1Br)OCO3)N2 (stereo not drawn),> 11 µM (inactive)
3,CCOC(=O)c1c(-c2ccccc2)csc1NC(=O)/C(C#N)=C/c1ccc(OC)c(OC)c1,> 11 µM (inactive)
4,CN(C)CCCN(C(=O)/C=C/c1cccs1)c1nc2ccc(F)cc2s1,> 11 µM (inactive)
5,Cc1ccc(/C(O)=C/c2nc3cc(C)ccc3oc2=O)cc1,> 11 µM (inactive)
6,CCc1c(C)nc(SCC(=O)c2cccs2)c(C#N)c1C,> 11 µM (inactive)
7,COC(=O)c1ccccc1-n1c(CCC(=O)O)ccc1-c1ccccc1,> 11 µM (inactive)
8,CCCCn1c(O)c(/C=N/NC(=O)c2ccncc2)c(=O)[nH]c1=O,> 11 µM (inactive)
9,O=C1NC(=O)N(c2ccccc2)C(=O)/C1=C\c1ccc2c3c(cccc13)CC2,> 11 µM (inactive)
10,CCCCC1=CC2=CC(=O)C(C)(OC(=O)CC)C(=O)C2=CO1 (stereo not drawn),> 11 µM (inactive)
11,Cc1ccc(/C=N/NC(=O)c2nnn(-c3nonc3N)c2-c2cccs2)cc1,> 11 µM (inactive)
12,COc1cc(O)c(C(=O)O)c(-c2cc(O)c(O)cc2C)c1,> 11 µM (inactive)
13,CCOc1ccc(C2OC34CCCCC3C(C#N)(C#N)C2(C#N)C(=N)O4)cc1OC (stereo not drawn),> 11 µM (inactive)
14,CCOC(=O)C1Nc2ccc(C(F)(F)F)cc2C2C=CCC12 (stereo not drawn),> 11 µM (inactive)
15,O=C(NCc1cccs1)C1CCN(S(=O)(=O)c2ccc(Br)s2)CC1,> 11 µM (inactive)
16,CCN(CC)CCN1C(=O)C(O)=C(C(=O)c2cc3cccc(OC)c3o2)C1c1ccc(F)cc1 (stereo not drawn),> 11 µM (inactive)
17,CC1(C)CC(=O)C2=C(C1)OC(N)=C(C#N)C2c1ccc(OC(=O)N2CCOCC2)cc1 (stereo not drawn),> 11 µM (inactive)
18,CC1(C)CCCN(C(=O)c2coc(=O)c(Br)c2)C1,> 11 µM (inactive)
19,COc1ccc2c3c([nH]c2c1)C1CC2C(CC(O)C(OC)C2C(=O)O)CN1CC3 (stereo not drawn),> 11 µM (inactive)
20,COC(=O)c1ccc(COc2ccc(/C=C(\C#N)c3nc4ccccc4[nH]3)cc2OC)o1,> 11 µM (inactive)
21,Cc1[nH][nH]c(=O)c1N=Nc1ccc(S(N)(=O)=O)cc1,> 11 µM (inactive)
